Assay results: article PMC12376128, “In vitro and In Vivo Drug Metabolism Analysis of BPI-460372 - A Covalent TEAD1/3/4 Inhibitor” (Current Drug Metabolism, 2025)

Key:
CYP3A4 = assay: Metabolic stability in HLMs with or without specific CYP inhibitor (ketoconazole); type: in vitro ADME, human; conditions: HLMs 1 mg protein/mL, substrate 1 μM, ketoconazole 20 µM
Protocol: (§1) Before starting the experiments, the HLMs were thawed gently on ice. Metabolic stability incubations were performed at 37 °C. The incubations contained 100 mM phosphate buffer saline (PBS, pH 7.4), HLMs (1 mg protein·mL^-1), dimethyl sulfoxide (DMSO, blank control) or a selective CYP inhibitor, and BPI-460372 or positive control substrates (final incubation concentration, 1 μM). The incubation process started with the addition of NADPH (1 mM final concentration) after a 5-minute preincubation period. The chemical inhibitors were as follows: a-naphthoflavone (2 µM) for CYP1A2, ticlopidine (20 µM) for 2B6, quercetin (20 µM) for CYP2C8, sulfaphenazole (20 µM) for CYP2C9, ticlopidine (200 µM) for CYP2C19, quinidine (20 µM) for CYP2D6, and ketoconazole (20 µM) for CYP3A [9]. Aliquots were maintained in acetonitrile containing internal standard (IS) at various time points, such as 0 min, 5 min, 10 min, 20 min, 30 min, and 60 min. All incubations were performed in triplicate, and the concentration in the supernatant was determined by liquid chromatography-tandem mass spectrometry (LC-MS/MS).
(§2) The elimination rate constant k (min^-1) was obtained by linear regression from the natural logarithm of the […] of the parent drug and the incubation time. The inhibition rate was calculated using equation 1 [10]: […]

monkey hepatocytes = assay: Metabolism and metabolite formation in hepatocytes; type: in vitro ADME, cynomolgus monkey; conditions: cynomolgus monkey hepatocytes, 10 µM BPI-460372, 4 h incubation
Excerpt: (§3) All the samples were duplicates.

rat hepatocytes = assay: Metabolism and metabolite formation in hepatocytes; type: in vitro ADME, SD rat; conditions: SD rat hepatocytes, 10 µM BPI-460372, 4 h incubation
Excerpt: as §3

mouse hepatocytes = assay: Metabolism and metabolite formation in hepatocytes; type: in vitro ADME, ICR mouse; conditions: ICR mouse hepatocytes, 10 µM BPI-460372, 4 h incubation
Excerpt: as §3

[1] = Metabolite identification in dog plasma; type: in vivo, beagle dogs; conditions: oral 8 mg/kg BPI-460372, average of male and female pooled samples
How it was run: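 Pooled sex-specific samples from SD rats: plasma after 12 mg/kg, urine, feces and bile (collected over 0-48 h) after 6 mg/kg; beagle dog plasma after 8 mg/kg. Acetonitrile extraction (urine centrifuged only), dried, redissolved in acetonitrile/water 20:80, analysed by UHPLC-Orbitrap-HRMS.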

Stability in plasma = type: in vitro ADME; conditions: monkey plasma, 37°C, 4 h
In vivo clearance = conditions: rats
TEAD proteins = tested on: TEAD proteins; parameters: method as in doi:10.1158/1538-7445.AM2023-501; conditions: cited from earlier work
TEAD palmitoylation = tested on: TEAD palmitoylation; parameters: method as in doi:10.1158/1538-7445.AM2023-501; conditions: cited from earlier work
human hepatocytes = assay: Metabolism and metabolite formation in hepatocytes; conditions: human hepatocytes, 10 µM BPI-460372, 4 h incubation
Protocol: 10 µM BPI-460372 was incubated in five species (human, cynomolgus monkey, beagle dog, SD rat, and ICR mouse) hepatocytes (1 × 10^6 cells·min^-1) at 37 °C for 4 h. 7-EC, as positive control, was incubated for 0 h and 4 h. For blank control, hepatocytes were inactivated by adding ice-cold acetonitrile, and then the BPI-460372 solution was added. All the samples were duplicates. Incubations were stopped using the same volume of cold acetonitrile. The tube was vortexed, and the duplicate samples were combined. Metabolite profiling and identification of BPI-460372 were conducted by using UHPLC-Orbitrap-HRMS. The samples of 7-EC were analyzed by LC-MS/MS and then semi-quantified using the peak area ratio of analyte versus IS.
For hepatocyte metabolite identification, the different metabolites of BPI-460372 were detected using an ACQUITY UPLC HSS T3 column (1.8 µm, 100 mm × 2.1 mm) and ACQUITY UPLC BEH C18 column (1.7 µm, 100 mm × 2.1 mm) for rat and dog metabolite identification. The mobile phase contained a mixture of 0.1% formic acid in water (A) and 0.1% formic acid in acetonitrile (B). The gradient elution program was as follows: 0.0-1.0 min, 5% B; 1.0-7.0 min, 5%-30% B; 7.0-12.0 min, 30%-80% B; 12.0-16.0 min, 80%-95% B; 16.0-18.0 min, 95% B; 18.0-18.1 min, 95%-5% B. Then, 5% B from 18.1 to 20.0 min was maintained for equilibration. The flow rate was set to 0.5 mL/min, and the column temperature was kept at 40°C. Eluted fractions were monitored by a UV detector at 314 nm.

CYP2D6 = CYP2D6 (Homo sapiens, UniProt P10635); assay: Metabolic stability in HLMs with or without specific CYP inhibitor (quinidine); type: in vitro ADME; parameters: HLMs (1 mg protein·mL^-1); tissue BioIVT; host or cells: pooled human liver microsomes; conditions: HLMs 1 mg protein/mL, substrate 1 μM, quinidine 20 µM
CYP2D6, sequence (P10635 whole entry): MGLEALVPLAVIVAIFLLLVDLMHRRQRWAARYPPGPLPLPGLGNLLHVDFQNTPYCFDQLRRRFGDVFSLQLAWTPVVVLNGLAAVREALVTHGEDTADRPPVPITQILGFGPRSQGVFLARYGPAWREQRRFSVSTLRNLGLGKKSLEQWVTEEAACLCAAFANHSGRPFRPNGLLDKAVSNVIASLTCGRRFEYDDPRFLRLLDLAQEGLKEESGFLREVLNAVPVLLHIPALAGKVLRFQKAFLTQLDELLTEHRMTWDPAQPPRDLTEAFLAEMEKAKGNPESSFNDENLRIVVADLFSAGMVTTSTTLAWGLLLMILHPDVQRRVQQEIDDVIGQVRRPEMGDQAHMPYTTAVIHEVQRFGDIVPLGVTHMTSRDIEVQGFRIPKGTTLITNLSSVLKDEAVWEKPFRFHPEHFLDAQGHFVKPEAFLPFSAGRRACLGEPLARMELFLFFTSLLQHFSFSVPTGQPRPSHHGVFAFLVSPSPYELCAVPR
Protocol: as §1, §2

[2] = tested on: cysteine S-conjugate β-lyase; assay: Effect of cysteine S-conjugate β-lyase inhibitor AOAA on the metabolism of BPI-460372 (rat urine); conditions: 20 mg/kg BPI-460372 + 100 mg/kg AOAA, once daily 21 days, urine 0-48 h on day 21
Protocol: To investigate the effect of cysteine S-conjugate β-lyase on the metabolism of BPI-460372, SD rats were treated with 20 mg/kg BPI-460372 alone (n=3, male) or 20 mg/kg BPI-460372 coadministration with 100 mg/kg cysteine S-conjugate β-lyase inhibitor AOAA (n=3, male), once daily for 21 consecutive days. On day 21, urine samples were collected at 0-8, 8-24 and 24-48 h. The same percentage of urine samples from each rat was taken at these three time intervals and mixed. The samples were analyzed by LC-MS/MS and then semi-quantified using the peak area ratio of analyte versus IS.

## C=C(F)C(=O)N1CC(n2c(=O)n(-c3ccc(C(F)(F)F)cc3)c3nccnc32)C1 [BPI-460372]
CYP3A4
  Inhibition Rate: 9.1%
Monkey hepatocytes
  UV (314 nm) Peak Areas Relative Abundance: 63.98%
Rat hepatocytes
  UV (314 nm) Peak Areas Relative Abundance: 70.87%
Mouse hepatocytes
  UV (314 nm) Peak Areas Relative Abundance: 32.74%
[1]
  Relative abundance of MS peak areas, Dog Plasma 0-48 h: 30.93%
Stability in plasma
  Stability in plasma: stable
In vivo clearance
  Clearance in vivo: low clearance
TEAD proteins; 2-fluoro acrylamide warhead
  Covalent binding to TEAD1/3/4: covalently bind to the Cys-368 residue
TEAD proteins
  Off-target covalent binding: without significant off-target covalent binding affinity
TEAD palmitoylation
  Inhibition of the palmitoylation of TEADs: inhibit the palmitoylation
Human hepatocytes
  UV (314 nm) Peak Areas Relative Abundance: 76.96%
CYP2D6
  Inhibition Rate: 17.0%
[2]
  Area ratio in rat urine, mean (%CV): 1.48 (69)
